From patent publication US10265296B2, “Methods for the treatment of systemic disorders treatable with mast cell stabilizers, including mast cell related disorders” (Respivant Sciences GmbH, priority 2015, dated 2019)
Like-named read-outs stand apart in the source and are kept apart here.

How the values were obtained:
[1] = cited from earlier work
[2] = Single-dose, dose escalation study Part 1: pharmacokinetics of plasma and urine DSCG in healthy subjects; assay type: in vivo, human; conditions: same dose (40 mg)
Method: • 1. […] 200 mg oral sodium cromoglycate solution (commercially available product), oral administration. […] 200 mg oral sodium cromoglycate solution (commercially available product), oral administration.
Prior to each dosing day, subjects were admitted to the clinic in the morning for baseline (pre-dose) assessments. Subjects were required to remain in the clinic for 12 h after study drug administration on each dosing day. Treatment Visits were separated by a washout period of 2 to 5 days.
Urine DSCG levels were measured for total DSCG excretion in the urine, and the bioavailability of the DSCG was calculated from the measured levels.
Pharmacokinetic parameters and plasma concentrations are listed and summarized. The summary statistics are presented as the geometric mean, arithmetic mean, arithmetic standard deviation (SD), min, median, max and n. The geometric statistics are not presented for Tmax. Analysis of variance (ANOVA) including terms for subject and treatment are used to calculate point estimates, and confidence intervals (CI) for treatment differences with respect to PK parameters (90% CI) are calculated.

lung deposition with the 30 L device compared with the 40 L device, indicated by AUC data [2]: surprisingly higher
SMILES: O=C(O)c1cc(=O)c2c(OCC(O)COc3cccc4oc(C(=O)O)cc(=O)c34)cccc2o1 [Cromolyn sodium, cromolyn sodium]
oral bioavailability ([1]; listed as cromolyn sodium): less than 1%
oral bioavailability ([1]; listed as cromolyn): about 1%
